Measurements published in PubChem BioAssay (NCI).
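Protocol summary: plate cells (96-well), add compound at 5 concentrations, incubate 48 h, interpolate endpoints linearly. TGI denotes the concentration required for complete inhibition of growth.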

What was measured:
Test in all cases: NCI tumour cell line growth inhibition, 48 h
OVCAR-4 ovarian = tested on: OVCAR-4 ovarian
RXF 393 renal = tested on: RXF 393 renal
KM12 colon = tested on: KM12 colon
HL-60(TB) leukemia = tested on: HL-60(TB) leukemia
HOP-92 NSCLC = tested on: HOP-92 NSCLC
SF-539 CNS = tested on: SF-539 CNS
XF 498 CNS = tested on: XF 498 CNS
SNB-78 CNS = tested on: SNB-78 CNS
DLD-1 colon = tested on: DLD-1 colon
SNB-75 CNS = tested on: SNB-75 CNS
LOX IMVI melanoma = tested on: LOX IMVI melanoma
NCI-H522 lung = tested on: NCI-H522 lung
EKVX NSCLC = tested on: EKVX NSCLC
UACC-257 melanoma = tested on: UACC-257 melanoma
CAKI-1 renal = tested on: CAKI-1 renal
IGROV1 ovarian = tested on: IGROV1 ovarian
LXFL 529 NSCLC = tested on: LXFL 529 NSCLC
COLO 205 colon = tested on: COLO 205 colon
TK-10 renal = tested on: TK-10 renal
SR leukemia = tested on: SR leukemia
SK-MEL-5 melanoma = tested on: SK-MEL-5 melanoma
OVCAR-3 ovarian = tested on: OVCAR-3 ovarian
786-0 renal = tested on: 786-0 renal
SN12C renal = tested on: SN12C renal
HCC-2998 colon = tested on: HCC-2998 colon
NCI-H460 lung = tested on: NCI-H460 lung
M19-MEL melanoma = tested on: M19-MEL melanoma
SK-MEL-28 melanoma = tested on: SK-MEL-28 melanoma
KM20L2 colon = tested on: KM20L2 colon
DMS 273 small cell lung = tested on: DMS 273 small cell lung
SNB-19 CNS = tested on: SNB-19 CNS
CCRF-CEM leukemia = tested on: CCRF-CEM leukemia
MOLT-4 leukemia = tested on: MOLT-4 leukemia
MALME-3M melanoma = tested on: MALME-3M melanoma
SK-OV-3 ovarian = tested on: SK-OV-3 ovarian
SF-268 CNS = tested on: SF-268 CNS
SK-MEL-2 melanoma = tested on: SK-MEL-2 melanoma
DMS 114 small cell lung = tested on: DMS 114 small cell lung
NCI-H23 lung = tested on: NCI-H23 lung
UO-31 renal = tested on: UO-31 renal
OVCAR-5 ovarian = tested on: OVCAR-5 ovarian
HCT-116 colon = tested on: HCT-116 colon
U251 CNS = tested on: U251 CNS
OVCAR-8 ovarian = tested on: OVCAR-8 ovarian
SF-295 CNS = tested on: SF-295 CNS
K-562 leukemia = tested on: K-562 leukemia
SW-620 colon = tested on: SW-620 colon
M14 melanoma = tested on: M14 melanoma
A549 NSCLC = tested on: A549 NSCLC
ACHN renal = tested on: ACHN renal
UACC-62 melanoma = tested on: UACC-62 melanoma
HOP-62 NSCLC = tested on: HOP-62 NSCLC
HT29 colon = tested on: HT29 colon
NCI-H226 lung = tested on: NCI-H226 lung
RPMI-8226 leukemia = tested on: RPMI-8226 leukemia
RXF-631 renal = tested on: RXF-631 renal
HOP-18 NSCLC = tested on: HOP-18 NSCLC
A498 renal = tested on: A498 renal
HCT-15 colon = tested on: HCT-15 colon

Measured: TGI

CCCCCCCCCC1CC(=O)OC2=C1C(=O)CCC2 (stereo unspecified)
> 100 µM: OVCAR-4 ovarian | RXF 393 renal | KM12 colon | HL-60(TB) leukemia | HOP-92 NSCLC | SF-539 CNS | XF 498 CNS | SNB-78 CNS | DLD-1 colon | SNB-75 CNS | LOX IMVI melanoma | NCI-H522 lung | EKVX NSCLC | UACC-257 melanoma | CAKI-1 renal | IGROV1 ovarian | LXFL 529 NSCLC | COLO 205 colon | TK-10 renal | SR leukemia | SK-MEL-5 melanoma | OVCAR-3 ovarian | 786-0 renal | SN12C renal | HCC-2998 colon | NCI-H460 lung | M19-MEL melanoma | SK-MEL-28 melanoma | KM20L2 colon | DMS 273 small cell lung | SNB-19 CNS | CCRF-CEM leukemia | MOLT-4 leukemia | MALME-3M melanoma | SK-OV-3 ovarian | SF-268 CNS | SK-MEL-2 melanoma | DMS 114 small cell lung | NCI-H23 lung | UO-31 renal | OVCAR-5 ovarian | HCT-116 colon | U251 CNS | OVCAR-8 ovarian | SF-295 CNS | K-562 leukemia | SW-620 colon | M14 melanoma | A549 NSCLC | ACHN renal | UACC-62 melanoma | HOP-62 NSCLC | HT29 colon | NCI-H226 lung | RPMI-8226 leukemia | RXF-631 renal | HOP-18 NSCLC

CC(C)N1CC2CC(CN(C(=O)c3ccc(Cl)cc3)C2)C1
> 100 µM: OVCAR-4 ovarian | RXF 393 renal | A498 renal | KM12 colon | HL-60(TB) leukemia | HOP-92 NSCLC | SF-539 CNS | XF 498 CNS | SNB-75 CNS | LOX IMVI melanoma | NCI-H522 lung | EKVX NSCLC | UACC-257 melanoma | CAKI-1 renal | IGROV1 ovarian | LXFL 529 NSCLC | COLO 205 colon | TK-10 renal | SK-MEL-5 melanoma | OVCAR-3 ovarian | 786-0 renal | SN12C renal | NCI-H460 lung | M19-MEL melanoma | SK-MEL-28 melanoma | KM20L2 colon | DMS 273 small cell lung | SNB-19 CNS | CCRF-CEM leukemia | MOLT-4 leukemia | MALME-3M melanoma | SK-OV-3 ovarian | SF-268 CNS | SK-MEL-2 melanoma | DMS 114 small cell lung | HCT-15 colon | NCI-H23 lung | UO-31 renal | OVCAR-5 ovarian | U251 CNS | OVCAR-8 ovarian | SF-295 CNS | K-562 leukemia | SW-620 colon | M14 melanoma | A549 NSCLC | ACHN renal | UACC-62 melanoma | HOP-62 NSCLC | HT29 colon | NCI-H226 lung | RPMI-8226 leukemia | RXF-631 renal | HOP-18 NSCLC
